Results on 3 compounds are retold here after article PMC11253624, “Unsaturated fatty acid perturbation combats emerging triazole antifungal resistance in the human fungal pathogen Aspergillus fumigatus” (mBio, 2024).

Converted amounts (≈) assume the structure as drawn.

Assay [1] concerns Aspergillus fumigatus. The assay can be described thus: CLSI-based microbroth dilution MIC, A. fumigatus strains. Conditions: Aspergillus fumigatus.
The subject of assay [2] is Aspergillus fumigatus. Kind of assay: FIC checkerboard synergy assay, A. fumigatus. In kind it is cell-based. Conditions: for MIC: Aspergillus fumigatus.
The next assay has as its system A. fumigatus CEA10. Kind of assay: Fatty acid profile of 24-hour biofilms by GC-MS. It counts as cell-based, Aspergillus fumigatus. Conditions: CEA10 24-hour biofilm; MBX-7591 0.58 µg/mL, voriconazole 0.0625 µg/mL.
A further assay concerns Cryptococcus neoformans. The assay can be described thus: FIC checkerboard assay MBX-7591 and oleic acid, C. neoformans. In kind it is cell-based. The protocol:
Single-treatment controls were completed with 50 µL of media to substitute the volume of the other compound. […] Additional untreated and media-only controls were added to the plate as described above. Incubation of the plates and MIC assessments (individual and in combination) were performed as described above. FIC calculations were done according to the established formula: ∑FIC=MIC combination compound A/MIC individual compound A + MIC combination compound B/MIC individual compound B . Synergy was considered equal or lower than 0.5, and antagonism was considered to be higher than 2. FIC scores reported represent between three and five biological replicates. All antifungal susceptibility testing was done in 96-well plates using RPMI 1640 media buffered with 165 mM of MOPS and pH 7 using NaOH. CLSI-based microbroth dilution assays were done in accordance with M27 ([49]). […] Additionally, an untreated control (100 µL of a stock of 2 × 10^3 spores/mL and 100 µL of media) and a media-only control (200 µL media) were included in the plate. The plate was covered in a Breathe-Eazy membrane to allow for uniform oxygen diffusion throughout the plate and incubated for 24 hours at 35°C (Candida spp.) or 72 hours at 35°C ± 5% CO2 (Cryptococcus neoformans).

Turning to `C[C@@H](c1ncncc1F)[C@](O)(Cn1cncn1)c1ccc(F)cc1F` [Voriconazole], the MIC in the assay with Aspergillus fumigatus [1] (ATCC46455, read-out: Voriconazole MIC) is 0.25 to 0.5 mg/L (≈ 0.716 to 1.43 µM); in the assay on Aspergillus fumigatus [1] (read-out: Voriconazole MIC, strain 08-19-02-10 (TR34/L98H)), 2 mg/L (≈ 5.73 µM); in the assay with Aspergillus fumigatus [1] (read-out: Voriconazole MIC, strain 08-19-02-46 (TR34/L98H)) it was 2 mg/L (≈ 5.73 µM); in the assay on Aspergillus fumigatus [1] (read-out: Voriconazole MIC, strain 08-19-02-61 (TR34/L98H), Table S6), 1 mg/L (≈ 2.86 µM); with Aspergillus fumigatus [1] (read-out: Voriconazole MIC, strain 08-31-08-91 (TR34/L98H), Table S6), 4 mg/L (≈ 11.5 µM); with Aspergillus fumigatus [1] (read-out: Voriconazole MIC, strain 10-19-02-27 (TR34/L98H)), 4 mg/L (≈ 11.5 µM). Besides, the MIC with Aspergillus fumigatus [1] (read-out: Voriconazole MIC, strain F11628 (G138C), Table S6) is > 8 mg/L; in the assay with Aspergillus fumigatus [1] (read-out: Voriconazole MIC, strain F15390 (M220T), Table S6) it was 1 mg/L (≈ 2.86 µM); in the assay on Aspergillus fumigatus [2] (read-out: MIC VCZ, strain 08-19-02-61 (TR34/L98H), alone), 2 mg/L; in the assay on Aspergillus fumigatus [2] (read-out: MIC VCZ, strain 08-31-08-91 (TR34/L98H), alone), 4 mg/L; in the assay on Aspergillus fumigatus [2] (read-out: MIC VCZ, strain F11628 (G138C), alone) it was > 8 mg/L; in the assay on Aspergillus fumigatus [2] (read-out: MIC VCZ, strain F15390 (caf8) (M220T), alone) it was 1 mg/L. In the assay with Aspergillus fumigatus [2] (strain CEA10, alone, read-out: MIC VCZ), the MIC is 0.25 to 0.5 mg/L. Moreover, the “MIC VCZ in combination” value in the assay with Aspergillus fumigatus [2] (strain 08-19-02-61, with MBX-7591) was 0.5 mg/L; in the assay on Aspergillus fumigatus [2] (strain 08-31-08-91, with MBX-7591) it was 1 mg/L; in the assay with Aspergillus fumigatus [2] (strain CEA10, with MBX-7591, listed as VCZ), 0.0625 to 0.125 mg/L; in the assay on Aspergillus fumigatus [2] (strain F11628, with MBX-7591), 0.5 to 1 mg/L; in the assay with Aspergillus fumigatus [2] (strain F15390 (caf8), with MBX-7591), 0.25 mg/L. Besides, the “MIC VCZ” value in the assay with Aspergillus fumigatus [2] (strain F11628 (G138C), alone, listed as VCZ) is >8 mg/L. Besides, the “increase in VCZ potency in combination” value with Aspergillus fumigatus [2] (with 0.613 µg/mL MBX-7591) is on record as “four to eight times more potent”. The “C14:0 relative percentage of fatty acids” value with A. fumigatus CEA10 came to 0.11 ± 0.0046. Also, in the assay on A. fumigatus CEA10, the “C15:0 relative percentage of fatty acids” value was determined as 0.39 ± 0.11. Besides, the “C16:0 (palmitic acid) relative percentage of fatty acids” value in the assay with A. fumigatus CEA10 is listed as 18.71 ± 0.25. Also, the “C16:1n7 relative percentage of fatty acids” value with A. fumigatus CEA10 is on record as 0.38 ± 0.041. In addition, the “C17a relative percentage of fatty acids” value in the assay on A. fumigatus CEA10 came out at 0.18 ± 0.15. For the same compound, in the assay on A. fumigatus CEA10, the “C18:0 (stearic acid) relative percentage of fatty acids” value is reported as 3.06 ± 0.26. For the same compound, in the assay with A. fumigatus CEA10, the “C18:1n7 relative percentage of fatty acids” value worked out at 0.00 ± 0. The “C18:1n9 (oleic acid) relative percentage of fatty acids” value with A. fumigatus CEA10 is 31.26 ± 1.67. Further, the “C18:2n6 relative percentage of fatty acids” value in the assay with A. fumigatus CEA10 stood at 45.91 ± 1.99.

Turning to `CCCCCCCC/C=C\CCCCCCCC(=O)O` [Oleic acid, oleic acid], the MIC in the assay with Aspergillus fumigatus [2] (CEA10, oleic acid alone, read-out: MIC OA) was > 500 mg/L; with Cryptococcus neoformans (Cryptococcus neoformans, H99, oleic acid alone, 5% CO2), > 500 mg/L. The “MIC OA combination” value worked out at 7.81 mg/L with Aspergillus fumigatus [2] (CEA10, first line of Table S8 (MBX-7591 9.81 μg/ml)); 15.63 mg/L in the assay with Aspergillus fumigatus [2] (CEA10, second line of Table S8 (MBX-7591 19.63 μg/ml)); 31.25 mg/L in the assay on Cryptococcus neoformans (H99, 5% CO2).

With `OC(Cn1cncn1)(Cn1cncn1)c1ccc(F)cc1F` [Fluconazole, fluconazole], in the assay on Aspergillus fumigatus [2] (strain CEA10, FLC alone, read-out: MIC Azole (FLC)), the MIC is > 256 mg/L. Further, in the assay on Aspergillus fumigatus [2] (strain CEA10, FLC with 0.613 µg/mL MBX-7591), the “MIC Azole in combination (FLC)” value was determined as 16 mg/L. Moreover, the “fold increase in FLC potency” value with Aspergillus fumigatus [2] (with 0.613 µg/mL MBX-7591) is reported as > 16 fold.
